The nature of data set [1]: Pharmacokinetic comparison experiment in rats, single subcutaneous injection. As to conditions: rat, in vivo, sc, 0.02 mg/kg. On the procedure:
A single subcutaneous injection was performed with a dose of 0.02 mg/kg; blood collection was performed by tail clipping, and the blood collection time points were: 0 h, 15 min, 30 min, 1 h, 2 h, 3 h, 4 h, 6 h, 8 h, 24 h, 48 h and 72 h. The compound concentration in plasma was determined by LC-MS/MS, all data were collected and exported by Unifi 1.9.3 software, and Excel software was used for data calculation. A non-compartmental model of DAS 3.0 software was used to calculate the pharmacokinetic parameters of rats after administration.

Data set [2] addresses human GLP-1R (Homo sapiens, UniProt P43220). The data set can be described thus: cAMP signal analysis of GLP-1R (GLP-1 receptor agonist activity). Type of data set: cell-based. Here is the method:
A wild human GLP-1R (NM_002062.5) was subjected to transient transfection and screened for two weeks by 600 μg/ml of hygromycin-B to obtain a cell line which was recombined and integrated into an FlpInCHO (Invitrogen) cell stable expression system. The culture condition of the FlpInCHO cell was as follows: 10% of heat-inactivated fetal calf serum was added to a DMEM culture solution, and the culture was performed in a 5% carbon dioxide cell incubator.
In the test, an LANCE cAMP detection kit was used for measuring the cAMP signal intensity.

Consider six compounds from US12590134B2, “GLP-1 agonist polypeptide compound and salt thereof, synthesis method therefor and use thereof” (Sinopep-Allsino Biopharmaceutical Co., Ltd., priority 2020, dated 2026).

Like-named read-outs stand apart in the source and are kept apart here.

human GLP-1R, sequence (P43220 24-463): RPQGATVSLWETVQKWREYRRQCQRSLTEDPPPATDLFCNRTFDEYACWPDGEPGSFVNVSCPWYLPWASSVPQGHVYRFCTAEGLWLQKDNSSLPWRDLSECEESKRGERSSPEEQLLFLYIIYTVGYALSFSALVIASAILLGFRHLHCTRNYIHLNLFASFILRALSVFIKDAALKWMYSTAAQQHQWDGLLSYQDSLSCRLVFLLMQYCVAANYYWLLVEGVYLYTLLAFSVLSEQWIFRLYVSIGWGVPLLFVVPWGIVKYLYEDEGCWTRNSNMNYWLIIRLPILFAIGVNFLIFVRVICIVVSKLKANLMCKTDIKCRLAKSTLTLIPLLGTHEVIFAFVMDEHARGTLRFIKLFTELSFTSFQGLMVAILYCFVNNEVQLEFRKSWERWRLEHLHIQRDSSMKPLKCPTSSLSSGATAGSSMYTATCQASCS

Turning to `CC[C@H](C)[C@H](NC(=O)[C@H](Cc1ccccc1)NC(=O)[C@H](CCC(=O)O)NC(=O)[C@H](CCCCNC(=O)COCCOCCNC(=O)COCCOCCNC(=O)CC[C@H](NC(=O)CCCCCCCCCCCCCCCCC(=O)O)C(=O)O)NC(=O)[C@H](C)NC(=O)[C@H](C)NC(=O)[C@H](CCC(N)=O)NC(=O)[C@](C)(CC)NC(=O)[C@H](CCC(=O)O)NC(=O)[C@H](CC(C)C)NC(=O)[C@H](Cc1ccc(O)cc1)NC(=O)[C@H](CO)NC(=O)[C@H](CO)NC(=O)[C@@H](NC(=O)[C@H](CC(=O)O)NC(=O)[C@H](CO)NC(=O)[C@@H](NC(=O)[C@H](Cc1ccccc1)NC(=O)[C@@H](NC(=O)CNC(=O)[C@H](CCC(=O)O)NC(=O)[C@](C)(CC)NC(=O)[C@@H](N)Cc1c[nH]cn1)[C@@H](C)O)[C@@H](C)O)C(C)C)C(=O)N[C@@H](C)C(=O)N[C@@H](Cc1c[nH]c2ccccc12)C(=O)N[C@@H](CC(C)C)C(=O)N[C@H](C(=O)N[C@@H](CCCNC(=N)N)C(=O)NCC(=O)N[C@@H](CCCNC(=N)N)C(=O)NCC(=O)O)C(C)C` [NO: 3], in data set [1] (male), the CL/F (in general, clearance divided by bioavailability, as obtained after extravascular dosing) was 0.133 mL/min/kg and the half-life (commonly the time needed for the level to fall by half in the phase considered) was 15.4 h. In data set [1], the AUC(0-inf) (usually the area under the concentration-time curve extrapolated to infinity) was 2810 ng·h/mL; the AUC(0-t) (commonly exposure summed from dosing to a finite time, without extrapolation to infinity) turned out to be 2630 ng·h/mL; the “AUMC(0-t), Mean” value is given as 73156.82 h * h * μg/L; the “AUMC(0-∞), Mean” value was determined as 89827.62 h * h * μg/L. Moreover, in data set [1], the Cmax (commonly the maximum level reached in the sampled fluid or tissue) is 66.8 ng/mL; the “R_AUC(t/∞), Mean” value is on record as 93.53%; the Tmax (as a rule, the time from dosing to the highest level) amounted to 24 h; the Vd/F (as a rule, the apparent distribution volume after extravascular dosing) turned out to be 0.17 L/kg. Also, in data set [2] (CHO cell line stably expressing human GLP-1R, downstream cAMP signal, LANCE cAMP kit, read-out: GLP-1R EC50), the EC50 (as a rule, the concentration giving half of the maximal effect) stood at 2.84 ± 0.513 nM.
In the case of `CC[C@H](C)[C@H](NC(=O)[C@H](Cc1ccccc1)NC(=O)[C@H](CCC(=O)O)NC(=O)[C@H](CCCCNC(=O)COCCOCCNC(=O)COCCOCCNC(=O)CC[C@H](NC(=O)CCCCCCCCCCCCCCCCC(=O)O)C(=O)O)NC(=O)[C@H](C)NC(=O)[C@H](C)NC(=O)[C@H](CCC(N)=O)NC(=O)CNC(=O)[C@H](CCC(=O)O)NC(=O)[C@H](CC(C)C)NC(=O)[C@H](Cc1ccc(O)cc1)NC(=O)[C@H](CO)NC(=O)[C@H](CO)NC(=O)[C@@H](NC(=O)[C@H](CC(=O)O)NC(=O)[C@H](CO)NC(=O)[C@@H](NC(=O)[C@H](Cc1ccccc1)NC(=O)[C@@H](NC(=O)CNC(=O)[C@H](CCC(=O)O)NC(=O)[C@@H]1CCCN1C(=O)[C@@H](N)Cc1c[nH]cn1)[C@@H](C)O)[C@@H](C)O)C(C)C)C(=O)N[C@@H](C)C(=O)N[C@@H](Cc1c[nH]c2ccccc12)C(=O)N[C@@H](CC(C)C)C(=O)N[C@H](C(=O)N[C@@H](CCCNC(=N)N)C(=O)NCC(=O)N[C@@H](CCCNC(=N)N)C(=O)NCC(=O)O)C(C)C` [NO: 18], a half-maximal effect in data set [2] (EC50) was put at 3.12 ± 0.512 nM.
Still for that read-out and setting: next, `CC[C@H](C)[C@H](NC(=O)[C@H](Cc1ccccc1)NC(=O)[C@H](CCC(=O)O)NC(=O)[C@H](CCCCNC(=O)COCCOCCNC(=O)COCCOCCNC(=O)CC[C@H](NC(=O)CCCCCCCCCCCCCCCCC(=O)O)C(=O)O)NC(=O)[C@H](C)NC(=O)[C@H](C)NC(=O)[C@H](CCC(N)=O)NC(=O)[C@@](C)(CC(F)(F)F)NC(=O)[C@H](CCC(=O)O)NC(=O)[C@H](CC(C)C)NC(=O)[C@H](Cc1ccc(O)cc1)NC(=O)[C@H](CO)NC(=O)[C@H](CO)NC(=O)[C@@H](NC(=O)[C@H](CC(=O)O)NC(=O)[C@H](CO)NC(=O)[C@@H](NC(=O)[C@H](Cc1ccccc1)NC(=O)[C@@H](NC(=O)CNC(=O)[C@H](CCC(=O)O)NC(=O)[C@@](C)(CC(F)(F)F)NC(=O)[C@@H](N)Cc1c[nH]cn1)[C@@H](C)O)[C@@H](C)O)C(C)C)C(=O)N[C@@H](C)C(=O)N[C@@H](Cc1c[nH]c2ccccc12)C(=O)N[C@@H](CC(C)C)C(=O)N[C@H](C(=O)N[C@@H](CCCNC(=N)N)C(=O)NCC(=O)N[C@@H](CCCNC(=N)N)C(=O)NCC(=O)O)C(C)C` [NO: 19]: 0.791 ± 0.0635 nM; `CC[C@H](C)[C@H](NC(=O)[C@H](Cc1ccccc1)NC(=O)[C@H](CCC(=O)O)NC(=O)[C@H](CCCCNC(=O)COCCOCCNC(=O)COCCOCCNC(=O)CC[C@H](NC(=O)CCCCCCCCCCCCCCCCC(=O)O)C(=O)O)NC(=O)[C@H](C)NC(=O)[C@H](C)NC(=O)[C@H](CCC(N)=O)NC(=O)CNC(=O)[C@H](CCC(=O)O)NC(=O)[C@H](CC(C)C)NC(=O)[C@H](Cc1ccc(O)cc1)NC(=O)[C@H](CO)NC(=O)[C@H](CO)NC(=O)[C@@H](NC(=O)[C@H](CC(=O)O)NC(=O)[C@H](CO)NC(=O)[C@@H](NC(=O)[C@H](Cc1ccccc1)NC(=O)[C@@H](NC(=O)CNC(=O)[C@H](CCC(=O)O)NC(=O)[C@@](C)(CC(F)(F)F)NC(=O)[C@@H](N)Cc1c[nH]cn1)[C@@H](C)O)[C@@H](C)O)C(C)C)C(=O)N[C@@H](C)C(=O)N[C@@H](Cc1c[nH]c2ccccc12)C(=O)N[C@@H](CC(C)C)C(=O)N[C@H](C(=O)N[C@@H](CCCNC(=N)N)C(=O)NCC(=O)N[C@@H](CCCNC(=N)N)C(=O)NCC(=O)O)C(C)C` [NO: 20]: 0.693 ± 0.0557 nM.
Still for that read-out and setting: the same measure for `CC[C@H](C)[C@H](NC(=O)[C@H](Cc1ccccc1)NC(=O)[C@H](CCC(=O)O)NC(=O)[C@H](CCCCNC(=O)COCCOCCNC(=O)COCCOCCNC(=O)CC[C@H](NC(=O)CCCCCCCCCCCCCCCCC(=O)O)C(=O)O)NC(=O)[C@H](C)NC(=O)[C@H](C)NC(=O)[C@H](CCC(N)=O)NC(=O)[C@](C)(NC(=O)[C@H](CCC(=O)O)NC(=O)[C@H](CC(C)C)NC(=O)[C@H](Cc1ccc(O)cc1)NC(=O)[C@H](CO)NC(=O)[C@H](CO)NC(=O)[C@@H](NC(=O)[C@H](CC(=O)O)NC(=O)[C@H](CO)NC(=O)[C@@H](NC(=O)[C@H](Cc1ccccc1)NC(=O)[C@@H](NC(=O)CNC(=O)[C@H](CCC(=O)O)NC(=O)[C@](C)(NC(=O)[C@@H](N)Cc1c[nH]cn1)C(F)(F)C(F)(F)F)[C@@H](C)O)[C@@H](C)O)C(C)C)C(F)(F)C(F)(F)F)C(=O)N[C@@H](C)C(=O)N[C@@H](Cc1c[nH]c2ccccc12)C(=O)N[C@@H](CC(C)C)C(=O)N[C@H](C(=O)N[C@@H](CCCNC(=N)N)C(=O)NCC(=O)N[C@@H](CCCNC(=N)N)C(=O)NCC(=O)O)C(C)C` [NO: 21]: 0.652 ± 0.0417 nM; for `CC[C@H](C)[C@H](NC(=O)[C@H](Cc1ccccc1)NC(=O)[C@H](CCC(=O)O)NC(=O)[C@H](CCCCNC(=O)COCCOCCNC(=O)COCCOCCNC(=O)CC[C@H](NC(=O)CCCCCCCCCCCCCCCCC(=O)O)C(=O)O)NC(=O)[C@H](C)NC(=O)[C@H](C)NC(=O)[C@H](CCC(N)=O)NC(=O)CNC(=O)[C@H](CCC(=O)O)NC(=O)[C@H](CC(C)C)NC(=O)[C@H](Cc1ccc(O)cc1)NC(=O)[C@H](CO)NC(=O)[C@H](CO)NC(=O)[C@@H](NC(=O)[C@H](CC(=O)O)NC(=O)[C@H](CO)NC(=O)[C@@H](NC(=O)[C@H](Cc1ccccc1)NC(=O)[C@@H](NC(=O)CNC(=O)[C@H](CCC(=O)O)NC(=O)[C@](C)(NC(=O)[C@@H](N)Cc1c[nH]cn1)C(F)(F)C(F)(F)F)[C@@H](C)O)[C@@H](C)O)C(C)C)C(=O)N[C@@H](C)C(=O)N[C@@H](Cc1c[nH]c2ccccc12)C(=O)N[C@@H](CC(C)C)C(=O)N[C@H](C(=O)N[C@@H](CCCNC(=N)N)C(=O)NCC(=O)N[C@@H](CCCNC(=N)N)C(=O)NCC(=O)O)C(C)C` [NO: 22]: 0.63 ± 0.0519 nM.
